Biological target: human Factor XIa (Homo sapiens (Human), UniProt P03951)
Assay: Factor XIa Assay
Format: biochemical
Settings: purified human Factor XIa 40 pM, Z-Gly-Pro-Arg-AFC 100 μM, pH 7.4; read-out: FXIa Ki
Description: The effectiveness of a compound of the present invention as an inhibitor of Coagulation Factor XIa can be determined using a relevant purified serine protease, and an appropriate synthetic substrate. The rate of hydrolysis of the chromogenic or fluorogenic substrate by the relevant serine protease was measured both in the absence and presence of compounds of the present invention. Assays were conducted at room temperature or at 37° C. […] A decrease in the rate of fluorescence change in the presence of inhibitor is indicative of enzyme inhibition. Such methods are known to one skilled in the art. The results of this assay are expressed as the inhibitory constant, Ki.
Factor XIa determinations were made in 50 mM HEPES buffer at pH 7.4 containing 150 mM NaCl, 5 mM CaCl2, and 0.1% PEG 8000 (polyethylene glycol; JT Baker or Fisher Scientific). Determinations were made using purified human Factor XIa at a final concentration of 40 pM (Sekisui Diagnostics) and he synthetic substrate, Z-Gly-Pro-Arg-AFC, TFA salt (Sigma #C0980) at a concentration of 100 μM.
Times required to achieve equilibration between enzyme and inhibitor were determined in control experiments. Initial velocities of product formation in the absence (Vo) or presence of inhibitor (Vi) were measured. Assuming competitive inhibition, and that unity is negligible compared Km/[S], [I]/e, and [I]/e (where [S], [I], and e respectively represent the total concentrations, of substrate, inhibitor and enzyme), the equilibrium constant (Ki) for dissociation of the inhibitor from the enzyme can be obtained from the dependence of Vo/Vi on [I] shown in the following equation.

Sequence of human Factor XIa (P03951 388-625): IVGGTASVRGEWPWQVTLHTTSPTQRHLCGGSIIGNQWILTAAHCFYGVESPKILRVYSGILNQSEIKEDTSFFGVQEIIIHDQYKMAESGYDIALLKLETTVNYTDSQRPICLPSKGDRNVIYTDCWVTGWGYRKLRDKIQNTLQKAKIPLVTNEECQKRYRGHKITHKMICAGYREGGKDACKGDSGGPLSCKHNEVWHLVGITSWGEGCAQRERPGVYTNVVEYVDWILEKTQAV
Sequence of human Factor XIa (P03951 19-387 partner): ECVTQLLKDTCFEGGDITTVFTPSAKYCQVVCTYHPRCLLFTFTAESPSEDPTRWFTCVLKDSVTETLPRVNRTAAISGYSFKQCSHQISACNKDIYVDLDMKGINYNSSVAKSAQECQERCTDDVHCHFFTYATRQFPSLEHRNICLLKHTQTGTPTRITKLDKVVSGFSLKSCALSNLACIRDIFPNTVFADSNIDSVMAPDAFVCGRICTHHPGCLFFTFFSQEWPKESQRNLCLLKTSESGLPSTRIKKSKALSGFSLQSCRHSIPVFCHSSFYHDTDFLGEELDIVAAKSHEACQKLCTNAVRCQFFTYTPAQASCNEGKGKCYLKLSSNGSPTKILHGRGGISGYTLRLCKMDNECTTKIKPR

SMILES | Ki
COC(=O)Nc1ccc(-c2ncc(C(Cc3ccccc3)C(=O)N3CCC[C@@]4(C3)OC(=O)Nc3ccc(Cl)c(F)c34)[nH]2)cc1 (single isomer, unassigned) [Example 130B] | > 875 nM
CC(=O)Nc1ccc(S(=O)(=O)N[C@@H](Cc2ccccc2)C(=O)N2CCC3(C2)OC(=O)Nc2ccc(Cl)cc23)cc1 (stereo partly drawn) [Example 284, N-(4-(N-((2S)-1-(6-chloro-2-oxo-1,2-dihydrospiro[benzo[d][1,3]oxazine-4,3′-pyrrolidin]-1′-yl)-1-oxo-3-phenylpropan-2-yl)sulfamoyl)phenyl)acetamide] | ≥ 5000 nM
COC(=O)Nc1ccc(C(=O)NC(Cc2cc[nH]n2)C(=O)N2CCC3(C2)OC(=O)Nc2ccc(Cl)cc23)cc1 (racemic) [Example 28, methyl (4-((1-(6-chloro-2-oxo-1,2-dihydrospiro[benzo[d][1,3]oxazine-4,3′-pyrrolidin]-1′-yl)-1-oxo-3-(1H-pyrazol-3-yl)propan-2-yl)carbamoyl)phenyl)carbamate] | 63.7 nM
O=C1Nc2ccc(Cl)cc2C2(CCN(C(=O)[C@H](Cc3ccccc3)NS(=O)(=O)c3ccc4oc(O)nc4c3)C2)O1 (stereo partly drawn) [Example 285, N-((2S)-1-(6-chloro-2-oxo-1,2-dihydrospiro[benzo[d][1,3]oxazine-4,3′-pyrrolidin]-1′-yl)-1-oxo-3-phenylpropan-2-yl)-2-hydroxybenzo[d]oxazole-5-sulfonamide] | ≥ 5000 nM
COC(=O)Nc1ccc2[nH]c(C(Cc3ccccc3)C(=O)N3CCC[C@@]4(C3)OC(=O)Nc3ccc(Cl)c(F)c34)cc2c1 (stereo partly drawn) [Example 134, methyl (2-(1-((R)-6-chloro-5-fluoro-2-oxo-1,2-dihydrospiro[benzo[d][1,3]oxazine-4,3′-piperidin]-1′-yl)-1-oxo-3-phenylpropan-2-yl)-1H-indol-5-yl)carbamate] | > 875 nM
O=C(Nc1ccc(C(=O)O)cc1)N[C@@H](Cc1ccccc1)C(=O)N1CCC2(C1)OC(=O)Nc1ccc(Cl)cc12 (stereo partly drawn) [Example 277, 4-(3-((2S)-1-(6-chloro-2-oxo-1,2-dihydrospiro[benzo[d][1,3]oxazine-4,3′-pyrrolidin]-1′-yl)-1-oxo-3-phenylpropan-2-yl)ureido)benzoic acid] | 5000 nM
COC(=O)Nc1ccc2[nH]c([C@@H](Cc3ccccc3)C(=O)N3CC[C@@]4(C3)OC(=O)Nc3ccc(Cl)cc34)nc2c1 [Example 131c, methyl (2-((R)-1-((R)-6-chloro-2-oxo-1,2-dihydrospiro[benzo[d][1,3]oxazine-4,3′-pyrrolidin]-1′-yl)-1-oxo-3-phenylpropan-2-yl)-1H-benzo[d]imidazol-5-yl)carbamate] | 354 nM
COC(=O)Nc1ccc(C(=O)N[C@@H](Cc2ccccc2)C(=O)N2CCC3(C2)NC(=O)Nc2ccc(Cl)cc23)cc1 (single isomer, unassigned) [Example 19b] | 708 nM
COC(=O)Nc1ccc(C(=O)N[C@@H](Cc2ccccc2)C(=O)N2CCC[C@@]3(C2)OC(=O)Nc2ccc(C(F)(F)F)cc23)cc1 [Example 10, methyl (4-(((S)-1-oxo-1-((R)-2-oxo-6-(trifluoromethyl)-1,2-dihydrospiro[benzo[d][1,3]oxazine-4,3′-piperidin]-1′-yl)-3-phenylpropan-2-yl)carbamoyl)phenyl)carbamate] | 8440 nM
COC(=O)Nc1ccc(C(=O)N[C@@H](Cc2ccccc2)C(=O)N2CCCCC3(C2)OC(=O)Nc2ccc(Cl)cc23)cc1 (stereo partly drawn) [Example 4, methyl (4-(((2S)-1-(6′-chloro-2′-oxo-1′,2′-dihydrospiro[azepane-3,4′-benzo[d][1,3]oxazin]-1-yl)-1-oxo-3-phenylpropan-2-yl)carbamoyl)phenyl)carbamate] | 4600 nM
COC(=O)Nc1ccc(C(=O)N[C@@H](Cc2ccccc2)C(=O)N2CCC[C@]3(C2)OC(=O)Nc2ccc(Cl)cc23)cc1 [Example 3a, methyl (4-(((S)-1-((S)-6-chloro-2-oxo-1,2-dihydrospiro[benzo[d][1,3]oxazine-4,3′-piperidin]-1′-yl)-1-oxo-3-phenylpropan-2-yl)carbamoyl)phenyl)carbamate] | 815 nM
COC(=O)Nc1ccc(-c2ncc(C(Cc3ccccc3)C(=O)N3CC[C@@]4(C3)OC(=O)Nc3ccc(Cl)c(F)c34)[nH]2)cc1 (stereo partly drawn) [Example 130, methyl (4-(5-(1-((R)-6-chloro-5-fluoro-2-oxo-1,2-dihydrospiro[benzo[d][1,3]oxazine-4,3′-pyrrolidin]-1′-yl)-1-oxo-3-phenylpropan-2-yl)-1H-imidazol-2-yl)phenyl)carbamate] | 91.9 nM
COC(=O)Nc1ccc(NC(=O)N[C@@H](Cc2ccccc2)C(=O)N2CCC3(C2)OC(=O)Nc2ccc(Cl)cc23)cc1 (stereo partly drawn) [Example 275, methyl (4-(3-((2S)-1-(6-chloro-2-oxo-1,2-dihydrospiro[benzo[d][1,3]oxazine-4,3′-pyrrolidin]-1′-yl)-1-oxo-3-phenylpropan-2-yl)ureido)phenyl)carbamate] | 5000 nM
COC(=O)Nc1ccc(C(=O)N[C@@H](CCCCO)C(=O)N2CCC3(C2)OC(=O)Nc2ccc(Cl)cc23)cc1 (stereo partly drawn) [Example 51, methyl (4-(((2S)-1-(6-chloro-2-oxo-1,2-dihydrospiro[benzo[d][1,3]oxazine-4,3′-pyrrolidin]-1′-yl)-6-hydroxy-1-oxohexan-2-yl)carbamoyl)phenyl)carbamate] | 55.7 nM
O=C1Nc2ccc(Cl)cc2[C@@]2(CCN(C(=O)[C@H](Cc3ccccc3)Nc3ncc(C(=O)O)cc3F)C2)O1 [Example 294, 6-(((S)-1-((R)-6-chloro-2-oxo-1,2-dihydrospiro[benzo[d][1,3]oxazine-4,3′-pyrrolidin]-1′-yl)-1-oxo-3-phenylpropan-2-yl)amino)-5-fluoronicotinic acid] | 10000 nM
COC(=O)Nc1ccc(C(=O)N[C@@H](CC(=O)NC2CCOCC2)C(=O)N2CC[C@@]3(C2)OC(=O)Nc2ccc(Cl)cc23)cc1 [Example 89, methyl (4-(((S)-1-((R)-6-chloro-2-oxo-1,2-dihydrospiro[benzo[d][1,3]oxazine-4,3′-pyrrolidin]-1′-yl)-1,4-dioxo-4-((tetrahydro-2H-pyran-4-yl)amino)butan-2-yl)carbamoyl)phenyl)carbamate] | 59.2 nM
COC(=O)Nc1ccc(C(=O)N[C@@H](CC(=O)Nc2ccc(F)cc2)C(=O)N2CC[C@@]3(C2)OC(=O)Nc2ccc(Cl)cc23)cc1 [Example 91, methyl (4-(((S)-1-((R)-6-chloro-2-oxo-1,2-dihydrospiro[benzo[d][1,3]oxazine-4,3′-pyrrolidin]-1′-yl)-4-((4-fluorophenyl)amino)-1,4-dioxobutan-2-yl)carbamoyl)phenyl)carbamate] | 144 nM

Same assay, conditions: read-out: FXIa Ki

SMILES | Ki
O=C1CCCc2cc(C(=O)N[C@@H](Cc3ccccc3)C(=O)N3CCC4(C3)OC(=O)Nc3ccc(Cl)cc34)ccc2N1 (some centres unmarked) [Example 187] | 151 nM
COC(=O)Nc1ccc(C(=O)N[C@@H](CC2CC2)C(=O)N2CCC[C@@]3(C2)OC(=O)Nc2ccc(Cl)cc23)cn1 [Example 204] | 244 nM
O=C1Nc2ccc(Cl)cc2C2(CCN(C(=O)[C@H](Cc3ccccc3)NC(=O)c3cnc4[nH]c(=O)oc4c3)C2)O1 (some centres unmarked) [Example 167] | 4160 nM
O=C1Nc2ccc(Cl)cc2C2(CCN(C(=O)[C@H](Cc3ccccc3)NC(=O)c3ccc(NC(=O)C(F)(F)F)cc3)C2)O1 (stereo partly drawn) [Example 162, N-((2S)-1-(6-chloro-2-oxo-1,2-dihydrospiro[benzo[d][1,3]oxazine-4,3′-pyrrolidin]-1′-yl)-1-oxo-3-phenylpropan-2-yl)-4-(2,2,2-trifluoroacetamido)benzamide] | 594 nM
O=C1Nc2ccc(Cl)cc2C2(CCN(C(=O)[C@H](Cc3ccccc3)NC(=O)c3ccc(O)c(F)c3)C2)O1 (stereo partly drawn) [Example 178, N-((2S)-1-(6-chloro-2-oxo-1,2-dihydrospiro[benzo[d][1,3]oxazine-4,3′-pyrrolidin]-1′-yl)-1-oxo-3-phenylpropan-2-yl)-3-fluoro-4-hydroxybenzamide] | 251 nM
C[C@@H]1NC(=O)O[C@H]1c1cccc(C(=O)N[C@@H](Cc2ccccc2)C(=O)N2CCC3(C2)OC(=O)Nc2ccc(Cl)cc23)c1 (stereo partly drawn) [Example 173, N-((2S)-1-(6-chloro-2-oxo-1,2-dihydrospiro[benzo[d][1,3]oxazine-4,3′-pyrrolidin]-1′-yl)-1-oxo-3-phenylpropan-2-yl)-3-((4S,5S)-4-methyl-2-oxooxazolidin-5-yl)benzamide] | 385 nM
O=C1Nc2ccc(Cl)cc2C2(CCN(C(=O)[C@H](Cc3ccccc3)NC(=O)c3ccc(CO)nc3)C2)O1 (some centres unmarked) [Example 158] | 752 nM
O=C1Nc2ccc(Cl)cc2C2(CCN(C(=O)[C@H](Cc3ccccc3)NC(=O)c3ccc4[nH]ncc4c3)C2)O1 (some centres unmarked) [Example 142] | 48.4 nM
NC(=O)c1n[nH]c2cc(C(=O)N[C@@H](Cc3ccccc3)C(=O)N3CC[C@@]4(C3)OC(=O)Nc3ccc(Cl)cc34)ccc12 [Example 219] | 2310 nM
O=C1Nc2ccc(Cl)cc2C2(CCN(C(=O)[C@H](Cc3ccccc3)NC(=O)c3ccc4ncc(O)nc4c3)C2)O1 (some centres unmarked) [Example 262] | 512 nM
O=C1Nc2ccc(Cl)cc2C2(CCN(C(=O)[C@H](Cc3ccccc3)NC(=O)c3ccc4[nH]cnc4c3)C2)O1 (some centres unmarked) [Example 176] | 59.8 nM
N#Cc1n[nH]c2cc(C(=O)N[C@@H](Cc3ccccc3)C(=O)N3CC[C@@]4(C3)OC(=O)Nc3ccc(Cl)cc34)ccc12 [Example 218] | 246 nM

From patent US10093683B2, “Factor XIa inhibitors” (Merck Sharp & Dohme Corp., priority 2014, dated 2018)
